Laboratory results: US20130149721A1, “Methods for Inhibiting Amyloid Precursor Protein and Beta-Amyloid Production and Accumulation” (WISCONSIN ALUMNI RESEARCH FOUNDATION, priority 2008, published 2013)

Tests used:
[1] = tested on: anxiety phenotype in Fmr-1 KO mice; details: intraperitoneal injections; cited from earlier work
[2] = tested on: APP levels in WT and Fmr-1 KO SN; assay: Western blot of steady-state APP levels in synaptoneurosomes; assay type: cell-based, mouse
Protocol: FIG. 3 is a result from western blot analysis illustrating differential regulation of APP levels in WT and KO SN. Western blots of WT (top panel) and KO (bottom panel) SN treated in the presence or absence of DHPG (at 5, 10 and 20 min of incubation) were probed with anti-APP and anti-β-actin (control) antibodies.
Western blot analysis. Aliquots of SNs were collected at 5, 10, and 20 min after DHPG treatment, quenched with an equal volume of 2×SDS sample buffer (8% SDS, 24% glycerol, 100 mM Tris (pH 6.8), 4% β-mercaptoethanol, 0.02% bromophenol blue, 2% Triton X-100, 2% deoxycholate, 2% NP-40 alternative, and 2% sarkosyl) and boiled for 5 min prior to analysis by 12% SDS-PAGE. The separated proteins were transferred to a 0.45 μm nitrocellulose membrane in Towbin buffer containing 20% methanol with a Criterion Blotter (Bio-Rad, http://www.bio-rad.com; 100 V, 4° C., 75 min). The membranes were blocked in 5% nonfat dry milk and hybridized with anti-rabbit APP antibody (dilution, 1 μg/ml) and anti-mouse β-actin antibody (dilution, 1:20,000) followed by hybridization with anti-rabbit or anti-mouse HRP-conjugated secondary antibodies (dilution, 1:2000). […]
In order to assess changes in steady-state APP levels, rather than new protein synthesis, APP was measured in WT and Fmr-1 KO SN in response to DHPG by western blot analysis (FIG. 3). […]

[3] = tested on: FMRP-associated APP mRNA in WT SN; assay: FMRP immunoprecipitation and RTqPCR of associated APP mRNA in synaptoneurosomes; assay type: cell-based, mouse
Protocol: SNs were prepared from WT and Fmr-1 KO mouse cortical tissue (Dunkley et al., 1988, Brain Res 441: 59-71; Bagni et al., 2000, J Neuorsci 20: RC76). Briefly, mouse pups aged 14-17 d were killed by carbon dioxide asphyxiation followed by removal of the brain cortices. The cortices were washed in ice-cold gradient medium (GM buffer: 0.25 M sucrose, 5 mM Tris (pH 7.5), and 0.1 mM EDTA), transferred to a glass dounce homogenizer containing ice-cold GM buffer, and gently homogenized with five strokes of the loose pestle followed by five strokes of the tight pestle. The homogenate was spun at 1000 g for 10 min at 4° C. in round-bottom tubes to pellet cellular debris and nuclei. […] The protein concentration of the SNs was determined by Bradford assay and ranged from 200-500 ng/μl. […]
SN lysates were precleared with protein A magnetic beads and immunoprecipitated with 10 μl RNasin, 10 μg 7G1-1 antiFMRP antibody (or in the absence of antibody as a control), and 100 μl packed fresh protein A magnetic beads for 3 h at 4° C. […] The final pellet was suspended in DEPC-treated water, solubilized 10 min at 60° C., and reverse transcribed with Qiagen Omniscript and random nonamer primer (60 min at 37° C., 5 min at 93° C.). cDNA produced in this reaction was diluted 5-fold and analyzed for APP by qPCR as described immediately above. […]

SMILES	effect on anxiety phenotype [1]	increase in total APP levels ([2]; Fmr-1 KO SN, DHPG)	increase in total APP levels ([2]; WT SN, within 5 min of DHPG, n=3)	time to loss of APP mRNA-FMRP complex ([3]; WT SN contacted with DHPG)	difference in FMRP-associated APP mRNA ([3]; WT SN, untreated vs 100 μM DHPG, 60 min)
Cc1cccc(C#Cc2ccccc2)n1 [MPEP, 2-methyl-6-(phenylethynyl)pyridine]	reduce	–	–	–	–
N[C@@H](C(=O)O)c1cc(O)cc(O)c1 (racemic) [DHPG, (R,S)-3,5-dihydroxyphenylglycine]	–	completely absent	1.6 fold	≤ 5 min	> 60 fold
